The series deals with HeLa cell. The series is described as follows: Cytotoxicity test (MTT, cell viability). The class given is cell-based. To be noted: HeLa cells, concentrations of 1 nM to 100 nM, cultured for 6 hours, 24 hours, or 48 hours. Here is the method: HeLa cell was seeded on a 96-well plate at 6×10^3 per well and was cultured overnight. Aqueous solutions of the compound 4 at concentrations of 0.1 nM, 1 nM, 10 nM and 100 nM were prepared as test agents, and the test agent at each concentration was added to the well, and HeLa cells were further cultured for 6, 24, and 48 hours. After the culturing for each of the above hours, MTT (3-(4,5-di-methylthiazol-2-yl)-2,5-diphenyltetrazolium bromide) reagent was added to the well, and the resultant product was further cultured for 2 hours.
After the culturing for 2 hours, a solubilizing solution was added to the well, and formazan produced in the living cell was dissolved by pipetting. By sealing the 96-well plate and allowing the resultant product to stand in an incubator overnight at 37° C., formazan was completely solubilized. A plate reader was used to measure 570 nm (formazan dye) and 650 nm (background), and the cell viability of the well to which the test agent of each concentration was added was determined, with the cell viability of a well without the addition of a test agent being 100%.
Culturing of HeLa cells and determination of cell viability of the well were performed as in the cytotoxicity test for the compound 4, except that a test agent was prepared using the compound 10 instead of the compound 4.

For `CC1(C)C(/C=C/C=C/C=C/C=C/C=C/C=C2/N(CCCCS(=O)(=O)O)c3ccc4ccccc4c3C2(C)C)=[N+](CCCCS(=O)(=O)[O-])c2ccc3ccccc3c21` [compound 10, ICG-C11], the “cytotoxicity (cell viability)” value was “did not exhibit cytotoxicity”.

The values above are taken from patent publication US20240174645A1, “COMPOUND, PRODUCTION METHOD THEREFOR, COMPLEX, AND SHORT WAVELENGTH INFRARED FLUORESCENT AGENT” (RIKEN, priority 2021, published 2024).
